According to US7585859B2, “PDE4B inhibitors and uses therefor” (Plexxikon, Inc., priority 2004, dated 2009):
pIC50: −log10 of the molar value. Where two headings read alike, the source gives them in different places.

What was measured:
[1] = target: T1, PDE4B: The catalytic domain of human PDE4B from S152-S528 (Homo sapiens, UniProt Q07343); assay: PDE4 IC50 determination by Scintillation Proximity Assay, PDE4B; assay type: biochemical
T1 construct: His6 (N); thrombin cleavage site (N); made in house; host or cells: E. coli
Outline: (§1)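 Hydrolysis of [^3H]cAMP measured by SPA with yttrium silicate beads, which bind the [^3H]AMP product strongly and cAMP weakly. Enzyme at 80 ng/ml for PDE4B, 4 ng/ml for PDE4D; 30 min at 30°.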

PDE4D = target: T2, PDE4D (Homo sapiens, UniProt Q08499); assay: PDE4 IC50 determination by Scintillation Proximity Assay, PDE4D; assay type: biochemical
T2 construct: PDE4D: The catalytic domain of human PDE4B from S3 16-V692; His6 (N); thrombin cleavage site (N); made in house; host or cells: E. coli
Outline: as §1

[2] = second part of Table 2B (2-23 to 2-103), column 3, column is PDE4B in first part, read-out: IC 50 vs. indicated assay h TNFα
[3] = second part of Table 2B (2-23 to 2-103), column 5, column is PDE4D in first part, read-out: IC 50 vs. indicated assay h TNFα
[4] = Table 3A, Formula III compounds, read-out: IC50 PDE4B
[5] = Table 3A, Formula III compounds, read-out: IC50 PDE4D

T1 sequence (Q07343 with tags, fused parts or gaps): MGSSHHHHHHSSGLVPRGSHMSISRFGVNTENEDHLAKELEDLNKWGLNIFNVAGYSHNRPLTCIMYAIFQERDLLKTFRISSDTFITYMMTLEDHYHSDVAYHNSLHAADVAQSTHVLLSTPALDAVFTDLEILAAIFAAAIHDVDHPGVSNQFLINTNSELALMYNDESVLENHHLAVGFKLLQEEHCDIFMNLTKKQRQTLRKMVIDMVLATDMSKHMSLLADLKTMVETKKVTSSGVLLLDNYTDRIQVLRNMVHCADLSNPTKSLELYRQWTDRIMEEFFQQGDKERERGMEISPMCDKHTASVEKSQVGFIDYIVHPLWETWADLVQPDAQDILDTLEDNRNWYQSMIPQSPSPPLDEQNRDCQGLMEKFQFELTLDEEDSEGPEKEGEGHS
T2 sequence (Q08499 380-756): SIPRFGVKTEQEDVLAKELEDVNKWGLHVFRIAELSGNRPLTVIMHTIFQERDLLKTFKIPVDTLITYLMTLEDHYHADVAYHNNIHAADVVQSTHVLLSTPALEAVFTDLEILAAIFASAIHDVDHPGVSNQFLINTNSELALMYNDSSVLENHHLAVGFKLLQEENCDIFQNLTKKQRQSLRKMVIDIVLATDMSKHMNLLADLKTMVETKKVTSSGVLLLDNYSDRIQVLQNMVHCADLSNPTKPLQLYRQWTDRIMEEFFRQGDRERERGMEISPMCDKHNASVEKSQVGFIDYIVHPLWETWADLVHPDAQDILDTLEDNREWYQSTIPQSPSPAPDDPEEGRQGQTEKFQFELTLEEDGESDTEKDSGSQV

SMILES: COc1ccc(Nc2nc(N)c(C(=O)C3CCCC3)s2)cc1 [Compound 2-99, [4-Amino-2-(4-methoxy-phenylamino)-thiazol-5-yl]-cyclopentyl-methanone]
- pIC50 [1, 2]: < 5.00
- pIC50 (PDE4D; [3]): < 5.00

SMILES: N#Cc1cccc(Nc2nc(N)c(C(=O)C3CCCC3)s2)c1 [Compound 2-100, 3-(4-Amino-5-cyclopentanecarbonyl-thiazol-2-ylamino)-benzonitrile]
- pIC50 [1, 2]: > 5.00
- pIC50 (PDE4D; [3]): > 5.00

SMILES: Nc1nc(Nc2ccc(Oc3ccccc3)cc2)sc1C(=O)C1CCCC1 [Compound 2-101, [4-Amino-2-(4-phenoxy-phenylamino)-thiazol-5-yl]-cyclopentyl-methanone]
- pIC50 [1, 2]: < 5.00
- pIC50 (PDE4D; [3]): < 5.00

SMILES: Nc1nc(NC2CCCC2)sc1C(=O)c1ccsc1 [Compound 2-102, (4-Amino-2-cyclopentylamino-thiazol-5-yl)-thiophen-3-yl-methanone]
- pIC50 [1, 2]: > 5.00
- pIC50 (PDE4D; [3]): > 5.00

SMILES: Nc1nc(NC2CCCC2)sc1C(=O)c1nc2ccccc2s1 [Compound 2-103, (4-Amino-2-cyclopentylamino-thiazol-5-yl)-benzothiazol-2-yl-methanone]
- pIC50 [1, 2]: > 5.00
- pIC50 (PDE4D; [3]): > 5.00

SMILES: O=S(=O)(Nc1cccc2cccnc12)c1cccs1 [Compound 3-1, Thiophene-2-sulfonic acid guinolin-8-ylamide]
- pIC50 [1, 4]: < 5.00
- pIC50 (PDE4D; [5]): < 5.00

SMILES: COc1cc(NS(=O)(=O)c2ccc(Br)s2)c2ncccc2c1 [Compound 3-2, 5-Bromo-thiophene-2-sulfonic acid (6-methoxy-quinolin-8-yl)-amide]
- pIC50 [1, 4]: < 5.00
- pIC50 (PDE4D; [5]): < 5.00

SMILES: Cc1ccc2cccnc2c1NS(=O)(=O)c1ccc(Cl)s1 [Compound 3-3, 5-Chloro-thiophene-2-sulfonic acid (7-methyl-quinolin-8-yl)-amide]
- pIC50 [1, 4]: < 5.00
- pIC50 (PDE4D; [5]): < 5.00

SMILES: O=S(=O)(Nc1cccc2cccnc12)c1ccc(Br)s1 [Compound 3-4, 5-Bromo-thiophene-2-sulfonic acid quinolin-8-ylamide]
- pIC50 [1, 4]: < 5.00
- pIC50 (PDE4D; [5]): < 5.00

SMILES: Cc1ccc2cccnc2c1NS(=O)(=O)c1cccs1 [Compound 3-5, Thiophene-2-sulfonic acid (7-methyl-quinolin-8-yl)-amide]
- pIC50 [1, 4]: < 5.00
- pIC50 (PDE4D; [5]): < 5.00

SMILES: Cc1ccc2cccnc2c1NS(=O)(=O)c1ccc(Br)s1 [Compound 3-6, 5-Bromo-thiophene-2-sulfonic acid (7-methyl-quinolin-8-yl)-amide]
- pIC50 [1, 4]: < 5.00
- pIC50 (PDE4D; [5]): < 5.00

SMILES: O=S(=O)(Nc1cccc2cccnc12)c1ccc(Cl)s1 [Compound 3-7, 5-Chloro-thiophene-2-sulfonic acid quinolin-8-ylamide]
- pIC50 [1, 4]: < 5.00
- pIC50 (PDE4D; [5]): < 5.00

SMILES: Cc1ccc2cccnc2c1NS(=O)(=O)c1cc(Cl)c(Cl)s1 [Compound 3-8, 4,5-Dichloro-thiophene-2-sulfonic acid (7-methyl-quinolin-8-yl)-amide]
- pIC50 [1, 4]: < 5.00
- pIC50 (PDE4D; [5]): < 5.00

SMILES: COc1cc(NS(=O)(=O)c2cc(Cl)c(Cl)s2)c2ncccc2c1 [Compound 3-9, 4,5-Dichloro-thiophene-2-sulfonic acid (6-methoxy-quinolin-8-yl)-amide]
- pIC50 [1, 4]: < 5.00
- pIC50 (PDE4D; [5]): < 5.00

SMILES: O=S(=O)(Nc1cccc2cccnc12)c1cc(Cl)c(Cl)s1 [Compound 3-10, 4,5-Dichloro-thiophene-2-sulfonic acid quinolin-8-ylamide]
- pIC50 [1, 4]: < 5.00
- pIC50 (PDE4D; [5]): < 5.00

SMILES: Cc1ccc2cccnc2c1NS(=O)(=O)c1cc(Cl)sc1Cl [Compound 3-11, 2,5-Dichloro-thiophene-3-sulfonic acid (7-methyl-quinolin-8-yl)-amide]
- pIC50 [1, 4]: < 5.00
- pIC50 (PDE4D; [5]): < 5.00

SMILES: COc1cc(NS(=O)(=O)c2ccc(Cl)s2)c2ncccc2c1 [Compound 3-12, 5-Chloro-thiophene-2-sulfonic acid (6-methoxy-quinolin-8-yl)-amide]
- pIC50 [1, 4]: < 5.00
- pIC50 (PDE4D; [5]): < 5.00

SMILES: COc1cc(NS(=O)(=O)c2cccs2)c2ncccc2c1 [Compound 3-13, Thiophene-2-sulfonic acid (6-methoxy-quinolin-8-yl)-amide]
- pIC50 [1, 4]: < 5.00
- pIC50 (PDE4D; [5]): < 5.00

SMILES: COc1cc(NS(=O)(=O)c2ccc(-c3ccnc(SC)n3)s2)c2ncccc2c1 [Compound 3-14, 5-(2-Methylsulfanyl-pyrimidin-4-yl)-thiophene-2-sulfonic acid (6-methoxy-quinolin-8-yl)-amide]
- pIC50 [1, 4]: > 5.00
- pIC50 (PDE4D; [5]): > 5.00

SMILES: CSc1nccc(-c2ccc(S(=O)(=O)Nc3c(C)ccc4cccnc34)s2)n1 [Compound 3-15, 5-(2-Methylsulfanyl-pyrimidin-4-yl)-thiophene-2-sulfonic acid (7-methyl-quinolin-8-yl)-amide]
- pIC50 [1, 4]: < 5.00
- pIC50 (PDE4D; [5]): < 5.00

SMILES: CSc1nccc(-c2ccc(S(=O)(=O)Nc3cccc4cccnc34)s2)n1 [Compound 3-16, 5-(2-Methylsulfanyl-pyrimidin-4-yl)-thiophene-2-sulfonic acid quinolin-8-ylamide]
- pIC50 [1, 4]: > 5.00
- pIC50 (PDE4D; [5]): > 5.00

SMILES: Cn1nc(-c2ccc(S(=O)(=O)Nc3cccc4cccnc34)s2)cc1C(F)(F)F [Compound 3-20, 5-(1-Methyl-5-trifluoromethyl-1H-pyrazol-3-yl)-thiophene-2-sulfonic acid quinolin-8-ylamide]
- pIC50 [1, 4]: < 5.00
- pIC50 (PDE4D; [5]): < 5.00

SMILES: COc1cc(NS(=O)(=O)c2ccc(-c3cc(C(F)(F)F)n(C)n3)s2)c2ncccc2c1 [Compound 3-21, 5-(1-Methyl-5-trifluoromethyl-1H-pyrazol-3-yl)-thiophene-2-sulfonic acid (6-methoxy-quinolin-8-yl)-amide]
- pIC50 [1, 4]: < 5.00
- pIC50 (PDE4D; [5]): < 5.00

SMILES: Cc1ccc2cccnc2c1NS(=O)(=O)c1ccc(-c2cc(C(F)(F)F)n(C)n2)s1 [Compound 3-22, 5-(1-Methyl-5-trifluoromethyl-1H-pyrazol-3-yl)-thiophene-2-sulfonic acid (7-methyl-quinolin-8-yl)-amide]
- pIC50 [1, 4]: < 5.00
- pIC50 (PDE4D; [5]): < 5.00

SMILES: O=S(=O)(Nc1cccc2cccnc12)c1ccc(-c2ccon2)s1 [Compound 3-23, 5-Isoxazol-3-yl-thiophene-2-sulfonic acid quinolin-8-ylamide]
- pIC50 [1, 4]: < 5.00
- pIC50 (PDE4D; [5]): < 5.00

SMILES: Cc1ccc2cccnc2c1NS(=O)(=O)c1ccc(-c2ccon2)s1 [Compound 3-24, 5-Isoxazol-3-yl-thiophene-2-sulfonic acid (7-methyl-quinolin-8-yl)-amide]
- pIC50 [1, 4]: < 5.00
- pIC50 (PDE4D; [5]): < 5.00

SMILES: COc1cc(NS(=O)(=O)c2ccc(-c3ccon3)s2)c2ncccc2c1 [Compound 3-25, 5-Isoxazol-3-yl-thiophene-2-sulfonic acid (6-methoxy-quinolin-8-yl)-amide]
- pIC50 [1, 4]: < 5.00
- pIC50 (PDE4D; [5]): < 5.00

SMILES: Cc1ccc2cccnc2c1NS(=O)(=O)c1ccc(-c2cc(C(F)(F)F)on2)s1 [Compound 3-26, 5-(5-Trifluoromethyl-isoxazol-3-yl)-thiophene-2-sulfonic acid (7-methyl-quinolin-8-yl)-amide]
- pIC50 [1, 4]: < 5.00
- pIC50 (PDE4D; [5]): < 5.00

SMILES: COc1cc(NS(=O)(=O)c2ccc(-c3cc(C(F)(F)F)on3)s2)c2ncccc2c1 [Compound 3-27, 5-(5-Trifluoromethyl-isoxazol-3-yl)-thiophene-2-sulfonic acid (6-methoxy-quinolin-8-yl)-amide]
- pIC50 [1, 4]: < 5.00
- pIC50 (PDE4D; [5]): < 5.00

SMILES: O=S(=O)(Nc1cccc2cccnc12)c1ccc(-c2cc(C(F)(F)F)on2)s1 [Compound 3-28, 5-(5-Trifluoromethyl-isoxazol-3-yl)-thiophene-2-sulfonic acid quinolin-8-ylamide]
- pIC50 [1, 4]: < 5.00
- pIC50 (PDE4D; [5]): < 5.00
